From the supplement of paper PMC10307832

Legend:
Experiment in all cases: relative viability (nuclei count vs DMSO), 5 days (fraction); higher = more cells survive
[1] = compound: CC(C)CCN1c2nc(Nc3cc(F)c(O)c(F)c3)ncc2N(C)C(=O)C1C [BI-D1870] + CC1(C)CCC(c2ccc(Cl)cc2)=C(CN2CCN(c3ccc(C(=O)NS(=O)(=O)c4ccc(N[C@H](CCN5CCOCC5)CSc5ccccc5)c(S(=O)(=O)C(F)(F)F)c4)cc3)CC2)C1 [Navitoclax] (partner 0.5 µM)
Procedure, shortened: (§1)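 Lung cancer cell lines were pin-tool dosed in 1536-well plates on the day after seeding, with either a lone drug or a fixed anchor-drug dose plus five library-drug doses (not always all listed) in √10 steps. Nuclei were counted on 4× images after 5 days. Relative viability is the ratio of treated-well to vehicle-well nuclei counts, with each value a median of duplicate plates.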

[2] = compound: O=c1ncccn1[C@@H]1O[C@H](CO)[C@@H](O)[C@H]1O [Zebularine]
Procedure, shortened: (§2)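 Five library-drug doses, separated by factors of √10, were pinned into 1536-well plates holding lung cancer cell lines after an overnight stay at 37 °C. Cells were fixed, permeabilised and Hoechst-stained in one step after 5 days without medium change, then imaged at 4×. Viability compares treated-well with vehicle-well nuclei, counted in MetaXpress, as a median across plates. Passing plates had control CV below 25% and at least one doubling.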

[3] = compound: CC(C)CCN1c2nc(Nc3cc(F)c(O)c(F)c3)ncc2N(C)C(=O)C1C [BI-D1870]
Procedure, shortened: as §2

[4] = compound: O=c1ncccn1[C@@H]1O[C@H](CO)[C@@H](O)[C@H]1O [Zebularine] + N=C(N)NC(=N)NCCc1ccccc1 [Phenformin] (partner 250 µM)
Procedure, shortened: as §1

Row | Cell Line | relative viability ([1]; first compound 0.04 µM) | relative viability ([1]; first compound 0.1265 µM) | relative viability ([1]; first compound 0.4 µM) | relative viability ([1]; first compound 1.265 µM) | relative viability ([1]; first compound 4 µM) | relative viability ([2]; 1 µM) | relative viability ([2]; 3.162 µM) | relative viability ([2]; 10 µM) | relative viability ([2]; 31.62 µM) | relative viability ([2]; 100 µM) | relative viability ([3]; 0.04 µM) | relative viability ([3]; 0.1265 µM) | relative viability ([3]; 0.4 µM) | relative viability ([3]; 1.265 µM) | relative viability ([3]; 4 µM) | relative viability ([4]; first compound 1 µM) | relative viability ([4]; first compound 3.162 µM) | relative viability ([4]; first compound 10 µM) | relative viability ([4]; first compound 31.62 µM) | relative viability ([4]; first compound 100 µM)
1 | Calu-6 | 0.989 | 0.829 | 0.823 | 0.671 | 0.352 | 1.18 | 0.99 | 0.747 | 0.7 | 0.246 | 1.11 | 0.865 | 0.998 | 0.904 | 0.676 | – | – | – | – | –
2 | LC-2-ad | 0.549 | 0.44 | 0.444 | 0.41 | 0.244 | 1.02 | 0.937 | 0.653 | 0.719 | 0.355 | 1.08 | 0.957 | 1.02 | 1.01 | 0.868 | 0.657 | 0.538 | 0.416 | 0.488 | 0.325
3 | CAL-12T | 1.35 | 1.03 | 1.19 | 1.07 | 1.08 | 1.03 | 0.871 | 0.793 | 0.993 | 0.671 | 1.14 | 0.87 | 0.946 | 0.97 | 0.682 | 0.569 | 0.464 | 0.535 | 0.583 | 0.391
4 | RERF-LC-KJ | 0.917 | 0.632 | 0.979 | 1.02 | 0.888 | 1.11 | 1.03 | 0.859 | 1.01 | 0.994 | 1.01 | 0.908 | 0.954 | 1.02 | 0.814 | 0.403 | 0.431 | 0.35 | 0.41 | 0.406
5 | NCI-H1650 | 1.26 | 1.05 | 1.23 | 1.34 | 1.15 | 1.03 | 0.904 | 0.766 | 1.15 | 0.727 | 0.9 | 0.765 | 1 | 0.96 | 0.807 | 0.493 | 0.476 | 0.307 | 0.492 | 0.353
6 | ABC-1 | – | – | – | – | – | 0.922 | 0.724 | 0.687 | 0.641 | 0.494 | 0.949 | 0.887 | 0.92 | 1.01 | 0.761 | 0.237 | 0.229 | 0.255 | 0.179 | 0.222
7 | NCI-H1299 | 1.04 | 1 | 1.09 | 1.01 | 0.843 | 1.02 | 0.97 | 0.858 | 1.06 | 0.454 | 1.05 | 1.01 | 1.04 | 1.04 | 0.863 | – | – | – | – | –
8 | EBC-1 | 0.433 | 0.424 | 0.367 | 0.194 | 0.134 | 1.1 | 0.811 | 0.842 | 1.11 | 0.974 | 0.995 | 0.889 | 0.839 | 0.654 | 0.361 | – | – | – | – | –
9 | NCI-H1648 | – | – | – | – | – | 1.16 | 1.06 | 0.563 | 0.668 | 0.708 | 0.877 | 0.777 | 0.729 | 0.89 | 0.869 | – | – | – | – | –
10 | NCI-H650 | – | – | – | – | – | 0.956 | 0.886 | 0.611 | 0.496 | 0.254 | 1.02 | 0.789 | 1.08 | 0.906 | 0.836 | 0.454 | 0.45 | 0.409 | 0.295 | 0.285
11 | NCI-H358 | – | – | – | – | – | 0.884 | 0.951 | 0.596 | 0.491 | 0.346 | 1.07 | 0.834 | 0.803 | 0.916 | 0.775 | 0.354 | 0.261 | 0.209 | 0.227 | 0.154
12 | NCI-H1563 | – | – | – | – | – | 0.966 | 0.969 | 0.951 | 1.04 | 0.998 | 0.991 | 1.01 | 0.933 | 0.972 | 0.994 | 0.684 | 0.674 | 0.647 | 0.702 | 0.661
13 | NCI-H522 | – | – | – | – | – | 0.9 | 1.08 | 0.87 | 0.928 | 0.847 | 0.974 | 1.15 | 1.04 | 1.08 | 0.841 | 0.589 | 0.631 | 0.622 | 0.656 | 0.65
14 | IA-LM | 0.818 | 0.926 | 0.764 | 0.577 | 0.19 | 1.12 | 0.809 | – | 1.14 | 0.863 | 1.13 | 0.863 | 0.913 | 1.05 | 0.646 | – | – | – | – | –
15 | NCI-H1703 | 1.1 | 0.846 | 1.02 | 1.28 | 0.745 | 0.856 | 0.815 | 0.606 | 0.899 | 0.667 | 0.92 | 0.708 | 0.905 | 1.02 | 0.806 | – | – | – | – | –
16 | LCLC-103H | – | – | – | – | – | 0.959 | 0.987 | 0.867 | 1.04 | 0.842 | 1.03 | 0.967 | 0.94 | 1.06 | 0.838 | 0.365 | 0.337 | 0.261 | 0.391 | 0.303
17 | SW 900 | – | – | – | – | – | 1.04 | 0.839 | 0.661 | 0.843 | 0.651 | 1.03 | 0.95 | 0.864 | 1.02 | 0.894 | 0.809 | 0.559 | 0.349 | 0.65 | 0.407
